# Laboratory results published in PubChem BioAssay AID1963980 (Molecular Pharmacology Branch, DTP, NCI, 2024).
# pIC50: −log10 of the molar value.
# System: 475296-252-R-J1-PDC spheroid viability
# Assay: Anticancer human tumor 475296-252-R-J1-PDC patient-derived rectal carcinoma cell line growth inhibition [PI3K]
# Conditions: spheroids with HUVEC and MSC; for pIC50: curve of first compound; for viability, T/C: stronger effect = lower value
# Method in brief: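 Three cell types, namely tumor cells, endothelial cells and mesenchymal stem cells, formed each spheroid. Combinations with four PI3K inhibitors were screened at clinically achievable concentrations decreasing by half-log, and spheroid viability was recorded.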
# [1] = second compound 0.0316 µM, first compound 0.000316 µM
# [2] = second compound 0.0316 µM, first compound 0.001 µM
# [3] = second compound 0.0316 µM, first compound 0.00316 µM
# [4] = second compound 0.0316 µM, first compound 0.01 µM
# [5] = second compound 0.0316 µM, first compound 0.0316 µM
# [6] = second compound 0.0316 µM, first compound 0.1 µM
# [7] = second compound 0.1 µM, first compound 0.000316 µM
# [8] = second compound 0.1 µM, first compound 0.001 µM
# [9] = second compound 0.1 µM, first compound 0.00316 µM
# [10] = second compound 0.1 µM, first compound 0.01 µM
# [11] = second compound 0.1 µM, first compound 0.0316 µM
# [12] = second compound 0.1 µM, first compound 0.1 µM
# [13] = second compound 0.316 µM, first compound 0.000316 µM
# [14] = second compound 0.316 µM, first compound 0.001 µM
# [15] = second compound 0.316 µM, first compound 0.00316 µM
# [16] = second compound 0.316 µM, first compound 0.01 µM
# [17] = second compound 0.316 µM, first compound 0.0316 µM
# [18] = second compound 0.316 µM, first compound 0.1 µM
# [19] = second compound 1 µM, first compound 0.000316 µM
# [20] = second compound 1 µM, first compound 0.001 µM
# [21] = second compound 1 µM, first compound 0.00316 µM
# [22] = second compound 1 µM, first compound 0.01 µM
# [23] = second compound 1 µM, first compound 0.0316 µM
# [24] = second compound 1 µM, first compound 0.1 µM
# [25] = second compound 3.16 µM, first compound 0.000316 µM
# [26] = second compound 3.16 µM, first compound 0.001 µM
# [27] = second compound 3.16 µM, first compound 0.00316 µM
# [28] = second compound 3.16 µM, first compound 0.01 µM
# [29] = second compound 3.16 µM, first compound 0.0316 µM
# [30] = second compound 3.16 µM, first compound 0.1 µM
# [31] = second compound 10 µM, first compound 0.000316 µM
# [32] = second compound 10 µM, first compound 0.001 µM
# [33] = second compound 10 µM, first compound 0.00316 µM
# [34] = second compound 10 µM, first compound 0.01 µM
# [35] = second compound 10 µM, first compound 0.0316 µM
# [36] = second compound 10 µM, first compound 0.1 µM
# [37] = second compound 0.0316 µM, first compound 0.316 µM
# [38] = second compound 0.0316 µM, first compound 1 µM
# [39] = second compound 0.0316 µM, first compound 3.16 µM
# [40] = second compound 0.0316 µM, first compound 10 µM
# [41] = second compound 0.1 µM, first compound 0.316 µM
# [42] = second compound 0.1 µM, first compound 1 µM
# [43] = second compound 0.1 µM, first compound 3.16 µM
# [44] = second compound 0.1 µM, first compound 10 µM
# [45] = second compound 0.316 µM, first compound 0.316 µM
# [46] = second compound 0.316 µM, first compound 1 µM
# [47] = second compound 0.316 µM, first compound 3.16 µM
# [48] = second compound 0.316 µM, first compound 10 µM
# [49] = second compound 1 µM, first compound 0.316 µM
# [50] = second compound 1 µM, first compound 1 µM
# [51] = second compound 1 µM, first compound 3.16 µM
# [52] = second compound 1 µM, first compound 10 µM
# [53] = second compound 3.16 µM, first compound 0.316 µM
# [54] = second compound 3.16 µM, first compound 1 µM
# [55] = second compound 3.16 µM, first compound 3.16 µM
# [56] = second compound 3.16 µM, first compound 10 µM
# [57] = second compound 10 µM, first compound 0.316 µM
# [58] = second compound 10 µM, first compound 1 µM
# [59] = second compound 10 µM, first compound 3.16 µM
# [60] = second compound 10 µM, first compound 10 µM
# 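Note: spheroids exposed to agents for seven days before readout.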
compound,measurement,setting,value
CC(=O)c1c(C)c2cnc(Nc3ccc(N4CCNCC4)cn3)nc2n(C2CCCC2)c1=O + CC(Nc1ncnc2nc[nH]c12)c1cc2cccc(Cl)c2c(=O)n1-c1ccccc1,pIC50,second compound 0.0316 µM,< 7.00
same,pIC50,second compound 0.1 µM,< 7.00
same,pIC50,second compound 0.316 µM,< 7.00
same,pIC50,second compound 1 µM,< 7.00
same,pIC50,second compound 3.16 µM,< 7.00
same,pIC50,second compound 10 µM,< 7.00
same,"viability, T/C",[1],91.8%
same,"viability, T/C",[2],91.4%
same,"viability, T/C",[3],87.8%
same,"viability, T/C",[4],94.2%
same,"viability, T/C",[5],96%
same,"viability, T/C",[6],102%
same,"viability, T/C",[7],97.4%
same,"viability, T/C",[8],106%
same,"viability, T/C",[9],94.4%
same,"viability, T/C",[10],85.8%
same,"viability, T/C",[11],105%
same,"viability, T/C",[12],112%
same,"viability, T/C",[13],105%
same,"viability, T/C",[14],89.7%
same,"viability, T/C",[15],104%
same,"viability, T/C",[16],97.2%
same,"viability, T/C",[17],104%
same,"viability, T/C",[18],101%
same,"viability, T/C",[19],99.9%
same,"viability, T/C",[20],109%
same,"viability, T/C",[21],84.1%
same,"viability, T/C",[22],95.3%
same,"viability, T/C",[23],107%
same,"viability, T/C",[24],112%
same,"viability, T/C",[25],99.2%
same,"viability, T/C",[26],86.5%
same,"viability, T/C",[27],100%
same,"viability, T/C",[28],97.7%
same,"viability, T/C",[29],105%
same,"viability, T/C",[30],104%
same,"viability, T/C",[31],91.4%
same,"viability, T/C",[32],94.8%
same,"viability, T/C",[33],89.9%
same,"viability, T/C",[34],97.4%
same,"viability, T/C",[35],99.8%
same,"viability, T/C",[36],86.6%
CC(C)n1nc(-c2ccc3oc(N)nc3c2)c2c(N)ncnc21 + CC(Nc1ncnc2nc[nH]c12)c1cc2cccc(Cl)c2c(=O)n1-c1ccccc1,pIC50,second compound 0.0316 µM,< 7.00
same,pIC50,second compound 0.1 µM,< 7.00
same,pIC50,second compound 0.316 µM,< 7.00
same,pIC50,second compound 1 µM,< 7.00
same,pIC50,second compound 3.16 µM,< 7.00
same,pIC50,second compound 10 µM,< 7.00
same,"viability, T/C",[1],87.4%
same,"viability, T/C",[2],101%
same,"viability, T/C",[3],96%
same,"viability, T/C",[4],76.7%
same,"viability, T/C",[5],66.4%
same,"viability, T/C",[6],59.6%
same,"viability, T/C",[7],97.8%
same,"viability, T/C",[8],88.2%
same,"viability, T/C",[9],78%
same,"viability, T/C",[10],72.9%
same,"viability, T/C",[11],77.4%
same,"viability, T/C",[12],62.3%
same,"viability, T/C",[13],101%
same,"viability, T/C",[14],110%
same,"viability, T/C",[15],105%
same,"viability, T/C",[16],92.7%
same,"viability, T/C",[17],65.9%
same,"viability, T/C",[18],56.4%
same,"viability, T/C",[19],111%
same,"viability, T/C",[20],97.8%
same,"viability, T/C",[21],84.9%
same,"viability, T/C",[22],88.5%
same,"viability, T/C",[23],63%
same,"viability, T/C",[24],59.2%
same,"viability, T/C",[25],87.8%
same,"viability, T/C",[26],101%
same,"viability, T/C",[27],94.6%
same,"viability, T/C",[28],75.2%
same,"viability, T/C",[29],66.8%
same,"viability, T/C",[30],61.2%
same,"viability, T/C",[31],91.3%
same,"viability, T/C",[32],92%
same,"viability, T/C",[33],88.9%
same,"viability, T/C",[34],80.3%
same,"viability, T/C",[35],68.9%
same,"viability, T/C",[36],63.6%
CC1(C)CCC(CN2CCN(c3ccc(C(=O)NS(=O)(=O)c4ccc(NCC5CCOCC5)c([N+](=O)[O-])c4)c(Oc4cnc5[nH]ccc5c4)c3)CC2)=C(c2ccc(Cl)cc2)C1 + CC(Nc1ncnc2nc[nH]c12)c1cc2cccc(Cl)c2c(=O)n1-c1ccccc1,pIC50,second compound 0.0316 µM,< 5.00
same,pIC50,second compound 0.1 µM,< 5.00
same,pIC50,second compound 0.316 µM,< 5.00
same,pIC50,second compound 1 µM,< 5.00
same,pIC50,second compound 3.16 µM,< 5.00
same,pIC50,second compound 10 µM,< 5.00
same,"viability, T/C",[5],102%
same,"viability, T/C",[6],99.1%
same,"viability, T/C",[37],91.2%
same,"viability, T/C",[38],104%
same,"viability, T/C",[39],107%
same,"viability, T/C",[40],84.2%
same,"viability, T/C",[11],107%
same,"viability, T/C",[12],93.8%
same,"viability, T/C",[41],98.8%
same,"viability, T/C",[42],99.7%
same,"viability, T/C",[43],106%
same,"viability, T/C",[44],99%
same,"viability, T/C",[17],120%
same,"viability, T/C",[18],95.4%
same,"viability, T/C",[45],97.9%
same,"viability, T/C",[46],95%
same,"viability, T/C",[47],86.4%
same,"viability, T/C",[48],94.3%
same,"viability, T/C",[23],86.6%
same,"viability, T/C",[24],104%
same,"viability, T/C",[49],98.9%
same,"viability, T/C",[50],101%
same,"viability, T/C",[51],91.8%
same,"viability, T/C",[52],91.7%
same,"viability, T/C",[29],93.2%
same,"viability, T/C",[30],99.4%
same,"viability, T/C",[53],95.1%
same,"viability, T/C",[54],87.6%
same,"viability, T/C",[55],96.9%
same,"viability, T/C",[56],95.6%
same,"viability, T/C",[35],78.5%
same,"viability, T/C",[36],91.7%
same,"viability, T/C",[57],92%
same,"viability, T/C",[58],88.9%
same,"viability, T/C",[59],90.6%
same,"viability, T/C",[60],81.3%
CCCS(=O)(=O)Nc1ccc(F)c(C(=O)c2c[nH]c3ncc(-c4ccc(Cl)cc4)cc23)c1F + CC(Nc1ncnc2nc[nH]c12)c1cc2cccc(Cl)c2c(=O)n1-c1ccccc1,pIC50,second compound 0.0316 µM,< 5.00
same,pIC50,second compound 0.1 µM,< 5.00
same,pIC50,second compound 0.316 µM,< 5.00
same,pIC50,second compound 1 µM,< 5.00
same,pIC50,second compound 3.16 µM,< 5.00
same,pIC50,second compound 10 µM,< 5.00
same,"viability, T/C",[5],96.5%
same,"viability, T/C",[6],112%
same,"viability, T/C",[37],103%
same,"viability, T/C",[38],94.8%
same,"viability, T/C",[39],85.1%
same,"viability, T/C",[40],110%
same,"viability, T/C",[11],110%
same,"viability, T/C",[12],110%
same,"viability, T/C",[41],97.3%
same,"viability, T/C",[42],90.6%
same,"viability, T/C",[43],107%
same,"viability, T/C",[44],100%
same,"viability, T/C",[17],94.6%
same,"viability, T/C",[18],88.6%
same,"viability, T/C",[45],99.4%
same,"viability, T/C",[46],101%
same,"viability, T/C",[47],90.9%
same,"viability, T/C",[48],105%
same,"viability, T/C",[23],89.5%
same,"viability, T/C",[24],104%
same,"viability, T/C",[49],96.2%
same,"viability, T/C",[50],90.6%
same,"viability, T/C",[51],96.7%
same,"viability, T/C",[52],96.6%
same,"viability, T/C",[29],97%
same,"viability, T/C",[30],104%
same,"viability, T/C",[53],90%
same,"viability, T/C",[54],100%
same,"viability, T/C",[55],87.6%
same,"viability, T/C",[56],87.4%
same,"viability, T/C",[35],101%
same,"viability, T/C",[36],80.1%
same,"viability, T/C",[57],79.8%
same,"viability, T/C",[58],97%
same,"viability, T/C",[59],90.3%
same,"viability, T/C",[60],92.3%
